For orientation: EC50 means the concentration giving half of the maximal effect. Low values mean greater potency, high ones weaker potency.

This assay concerns M17—3TAU(P301L) cells. In words: Neuroblastoma tauopathy model: inhibition of TAU-induced cytotoxicity (LDH). Type of assay: cell-based. Particulars: Homo sapiens, 168 h; inhibition of TAU-induced toxicity (LDH), 7 days differentiation with retinoic acid. In short, it runs like this: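 BE-M17 neuroblastoma cells stably expressing human TAU-P301L, differentiated with RA (2.5 μM in added medium) for 7 days at 37 °C with compounds at a range of concentrations. Cytotoxicity as supernatant LDH over total LDH (Cytotox 96); EC50 from dose-dependent inhibition curve.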
On to `Fc1ccc(-c2nsc(N3CCN(CCc4ccccc4)CC3)n2)cc1F` [Example 101, 1-[3-(3,4-Difluoro-phenyl)-[1,2,4]thiadiazol-5-yl]-4-phenethyl-piperazine], for which the response was half-maximal at 3.2 nM (EC50).
In turn, `COc1ccc(CCN2CCN(c3nc(-c4ccc(Cl)cc4)ns3)CC2)cc1F` [Example 80, 1-[3-(4-Chloro-phenyl)-[1,2,4]thiadiazol-5-yl]-4-[2-(3-fluoro-4-methoxy-phenyl)-ethyl]-piperazine] returned an EC50 of 2.7 nM.
As for `Clc1ccc(CCN2CCN(c3nc(-c4ccc(Cl)cn4)ns3)CC2)cc1` [Example 124, 1-[2-(4-Chloro-phenyl)-ethyl]-4-[3-(5-chloro-pyridin-2-yl)-[1,2,4]thiadiazol-5-yl]-piperazine], it took 458 nM to reach a half-maximal effect (EC50).
The compound `COc1cccc(CCN2CCN(c3nc(-c4ccc(F)cc4OC)ns3)CC2)c1` [Example 66, 1-[3-(4-Fluoro-2-methoxy-phenyl)-[1,2,4]thiadiazol-5-yl]-4-[2-(3-methoxy-phenyl)-ethyl]-piperazine] yielded a 50% effective concentration (EC50) of 1.5 nM.
With `COc1ccc(CCN2CCN(c3nc(-c4ccc(F)cc4)ns3)CC2)cc1` [Example 47, 1-[3-(4-Fluoro-phenyl)-[1,2,4]thiadiazol-5-yl]-4-[2-(4-methoxy-phenyl)-ethyl]-piperazine], the EC50 came to 0.4 nM.
Turning to `Fc1ccc(-c2nsc(N3CCN(CCc4cccc(C(F)(F)F)c4)CC3)n2)cc1F` [Example 158, 3-(3,4-difluorophenyl)-5-(4-(3-(trifluoromethyl)phenethyl)piperazin-1-yl)-1,2,4-thiadiazole], the response was half-maximal at 998 nM (EC50).
`COc1ccc(CCN2CCN(c3nc(-c4ccc(C)cc4)ns3)CC2)cc1` [Example 19, 1-[2-(4-Methoxy-phenyl)-ethyl]-4-(3-p-tolyl-[1,2,4]thiadiazol-5-yl)-piperazine] came in with an EC50 of 2 nM. This EC50 lies about 500-fold lower than the previous one.
In turn, `Cc1ccccc1CN1CCN(c2nc(-c3ccc(Cl)cn3)ns2)CC1` [Example 129, 1-[3-(5-Chloro-pyridin-2-yl)-[1,2,4]thiadiazol-5-yl]-4-(2-methyl-benzyl)-piperazine] displayed a concentration for a half-maximal effect (EC50) of 92.3 nM.
Take `N#Cc1ccc(-c2nsc(N3CCN(CCc4cccc(C(F)(F)F)c4)CC3)n2)cc1` [Example 143, 4-(5-{4-[2-(3-Trifluoromethyl-phenyl)-ethyl]-piperazin-1-yl}-[1,2,4]thiadiazol-3-yl)-benzonitrile]: a half-maximal effect (EC50) was put at 143 nM.
For `Cc1ccc(-c2nsc(N3CCN(CCc4ccc(Cl)cc4)CC3)n2)cn1` [Example 98, 1-[2-(4-Chloro-phenyl)-ethyl]-4-[3-(6-methyl-pyridin-3-yl)-[1,2,4]thiadiazol-5-yl]-piperazine] the value was 80.6 nM; for `COc1ccc(CCN2CCN(c3nc(-c4cnc(C)nc4)ns3)CC2)cc1` [Example 179, 5-(4-(4-methoxyphenethyl)piperazin-1-yl)-3-(2-methylpyrimidin-5-yl)-1,2,4-thiadiazole], 3.4 nM; for `COc1cccc(CCN2CCN(c3nc(-c4ccc(C)cc4)ns3)CC2)c1` [Example 16, 1-[2-(3-Methoxy-phenyl)-ethyl]-4-(3-p-tolyl-[1,2,4]thiadiazol-5-yl)-piperazine], 65.3 nM.
The compound `COc1cc(CCN2CCN(c3nc(-c4ccc(Cl)cc4)ns3)CC2)ccn1` [Example 75, 1-[3-(4-Chloro-phenyl)-[1,2,4]thiadiazol-5-yl]-4-[2-(2-methoxy-pyridin-4-yl)-ethyl]-piperazine] gave an EC50 of 13.4 nM.
For the compound `Clc1ccc(-c2nsc(N3CCN(CCc4ccccc4)CC3)n2)nc1` [Example 121, 1-[3-(5-Chloro-pyridin-2-yl)-[1,2,4]thiadiazol-5-yl]-4-phenethyl-piperazine], the EC50 amounted to 34.6 nM.
The value for `Cc1ccccc1CN1CCN(c2nc(-c3ccc(C#N)cc3)ns2)CC1` [Example 118, 4-{5-[4-(2-Methyl-benzyl)-piperazin-1-yl]-[1,2,4]thiadiazol-3-yl}-benzonitrile] was 181 nM; that for `COc1ccc(CCN2CCN(c3nc(-c4ccc(F)c(F)c4)ns3)CC2)cn1` [Example 105, 1-[3-(3,4-Difluoro-phenyl)-[1,2,4]thiadiazol-5-yl]-4-[2-(6-methoxy-pyridin-3-yl)-ethyl]-piperazine] was 2.1 nM.
As for `COc1cccc(C(=O)CN2CCN(c3nc(-c4ccc(Cl)cc4)ns3)CC2)c1` [Example 60, 2-{4-[3-(4-Chloro-phenyl)-[1,2,4]thiadiazol-5-yl]-piperazin-1-yl}-1-(3-methoxy-phenyl)-ethanone], the 50% effective concentration (EC50) came to 41.2 nM.
For `Cc1ncc(-c2nsc(N3CCN(CCc4ccc(F)cc4)CC3)n2)cn1` [Example 181, 5-(4-(4-fluorophenethyl)piperazin-1-yl)-3-(2-methylpyrimidin-5-yl)-1,2,4-thiadiazole] the value was 31.6 nM; for `Cc1ccccc1CN1CCN(c2nc(-c3cccc(F)c3)ns2)CC1` [Example 99, 1-[3-(3-Fluoro-phenyl)-[1,2,4]thiadiazol-5-yl]-4-(2-methyl-benzyl)-piperazine], 271 nM; for `CCOc1ccc(CCN2CCN(c3nc(-c4ccc(Cl)cc4)ns3)CC2)cc1` [Example 50, 1-[3-(4-Chloro-phenyl)-[1,2,4]thiadiazol-5-yl]-4-[2-(4-ethoxy-phenyl)-ethyl]-piperazine], 169 nM.
In the case of `N#Cc1cccc(-c2nsc(N3CCN(CCc4ccc(F)cc4)CC3)n2)c1` [Example 111, 3-(5-{4-[2-(4-Fluoro-phenyl)-ethyl]piperazin-1-yl}-[1,2,4]thiadiazol-3-yl)-benzonitrile], the EC50 was determined as 3.1 nM.
As for `Cc1ccc(-c2nsc(N3CCN(Cc4ccc(Cl)cc4Cl)CC3)n2)cc1` [Example 3, 1-(2,4-Dichloro-benzyl)-4-(3-p-tolyl-[1,2,4]thiadiazol-5-yl)-piperazine], the response was half-maximal at 987 nM (EC50).
The value for `COc1cc(CCN2CCN(c3nc(-c4cccc(Cl)c4)ns3)CC2)ccn1` [Example 89, 1-[3-(3-Chloro-phenyl)-[1,2,4]thiadiazol-5-yl]-4-[2-(2-methoxy-pyridin-4-yl)-ethyl]-piperazine] was 1.6 nM; that for `N#Cc1ccc(-c2nsc(N3CCN(CCc4ccc(F)cc4)CC3)n2)cc1` [Example 110, 4-(5-{4-[2-(4-Fluoro-phenyl)-ethyl]piperazin-1-yl}-[1,2,4]thiadiazol-3-yl)-benzonitrile] was 17.8 nM.
As for `COc1ccc(CCN2CCN(c3nc(-c4cccc(Cl)c4)ns3)CC2)cn1` [Example 93, 1-[3-(3-Chloro-phenyl)-[1,2,4]thiadiazol-5-yl]-4-[2-(6-methoxy-pyridin-3-yl)-ethyl]-piperazine], the concentration giving a half-maximal response (EC50) worked out at 0.9 nM.
As to `COc1ccc(CCN2CCN(c3nc(-c4cccc(Cl)c4)ns3)CC2)cc1` [Example 41, 1-[3-(3-Chloro-phenyl)-[1,2,4]thiadiazol-5-yl]-4-[2-(4-methoxy-phenyl)-ethyl]-piperazine], the EC50 was found to be 0.7 nM.
In the case of `Fc1ccc(-c2nsc(N3CCN(CCc4ccc(C(F)(F)F)cc4)CC3)n2)cc1F` [Example 146, 1-[3-(3,4-Difluoro-phenyl)-[1,2,4]thiadiazol-5-yl]-4-[2-(4-trifluoromethyl-phenyl)-ethyl]-piperazine], the 50% effective concentration (EC50) was determined as 60.1 nM.
The value for `COc1ccc(CCN2CCN(c3nc(-c4ccc(Cl)cc4)ns3)CC2)cn1` [Example 79, 1-[3-(4-Chloro-phenyl)-[1,2,4]thiadiazol-5-yl]-4-[2-(6-methoxy-pyridin-3-yl)-ethyl]-piperazine] was 2.8 nM.

These data come from patent publication US9023852B2, “1, 2, 4-thiadiazol-5-ylpiperazine derivatives useful in the treatment of neurodegenerative diseases” (Remynd NV, priority 2011, dated 2015).
